The values below come from US9108944B2, “Androgen receptor modulators and uses thereof” (ARAGON PHARMACEUTICALS, INC., priority 2010, dated 2015).

Bounds are passed on as bounds.

The target of test [1] is T1, AR-VP16 (Homo sapiens, UniProt P10275).
T1 sequence (P10275 560-920 limits assumed): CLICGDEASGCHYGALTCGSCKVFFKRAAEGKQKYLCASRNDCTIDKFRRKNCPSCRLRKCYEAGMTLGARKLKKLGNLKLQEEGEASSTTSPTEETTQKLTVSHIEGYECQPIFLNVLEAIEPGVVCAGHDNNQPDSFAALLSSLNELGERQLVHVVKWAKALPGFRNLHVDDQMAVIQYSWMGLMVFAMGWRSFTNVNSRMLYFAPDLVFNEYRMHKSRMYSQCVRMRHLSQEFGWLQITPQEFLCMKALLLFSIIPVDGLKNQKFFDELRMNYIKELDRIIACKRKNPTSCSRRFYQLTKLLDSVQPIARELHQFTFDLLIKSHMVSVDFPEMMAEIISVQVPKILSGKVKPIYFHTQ
The test is described as follows: AR-VP16 DNA Binding Assay, agonist mode (HepG2 cells). It counts as cell-based. The conditions noted are these: Emax >20x DMSO control = agonist.

Test [2] concerns the target T1, AR-VP16. The test is described as follows: AR-VP16 DNA Binding Assay, antagonist mode (HepG2 cells, 0.1 nM R1881). The test is classed as cell-based. The gist of the method: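 Transfected HepG2 cells expressing AR-VP16 received serially diluted compound in charcoal-stripped-serum RPMI the day after transfection, with 0.1 nM R1881 (final) added only for antagonist testing. After 48 h, cells were lysed for measurement.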

As a reminder, the IC50 is the concentration that gives 50% inhibition. Low readings indicate greater potency in that assay, high ones weaker potency in that assay. For `N#Cc1ncc(N2C(=O)C3(CCC3)N(c3ccc(O)c(F)c3)C2=S)cc1C(F)(F)F` [Compound 1, 5-(5-(3-Fluoro-4-hydroxyphenyl)-8-oxo-6-thioxo-5,7-diazaspiro[3.4]octan-7-yl)-3-(trifluoromethyl)picolinonitrile], in test [1], the “ARVP16 DNA Binding Assay (Agonist mode): Agonist?” value (from here on “ARVP16 DNA Binding Assay”) was “No (Agonist defined as a compound whose Emax in the ARVP16 DNA Binding Assay (Agonist mode) is >20x DMSO control)”. In addition, the IC50 in test [2] was under 1000 nM.
Taken in the same sequence, the figures for `O=C1N(c2ccc3nnc(C(F)(F)F)n3n2)C(=S)N(c2ccc(O)cc2)C12CCC2` [Compound 2, 5-(4-Hydroxyphenyl)-6-thioxo-7-(3-(trifluoromethyl)-[1,2,4]triazolo[4,3-b]pyridazin-6-yl)-5,7-diazaspiro[3.4]octan-8-one] were “No (Agonist defined as a compound whose Emax in the ARVP16 DNA Binding Assay (Agonist mode) is >20x DMSO control)” and over 1000 nM.
Taken in the same sequence, the figures for `CCOC(=O)c1ccc(N2C(=S)N(c3cnc(C#N)c(C(F)(F)F)c3)C(=O)C23CCC3)cc1F` [Compound 3, Ethyl 4-(7-(6-cyano-5-(trifluoromethyl)pyridin-3-yl)-8-oxo-6-thioxo-5,7-diazaspiro[3.4]octan-5-yl)-2-fluorobenzoate] were “No (Agonist defined as a compound whose Emax in the ARVP16 DNA Binding Assay (Agonist mode) is >20x DMSO control)” and over 1000 nM.
On the same counts, the results for `CNC(=O)c1ccc(N2C(=S)N(c3cnc(C#N)c(C)c3)C(=O)C23CCC3)cc1F` [Compound 5, 4-(7-(6-Cyano-5-methylpyridin-3-yl)-8-oxo-6-thioxo-5,7-diazaspiro[3.4]octan-5-yl)-2-fluoro-N-methylbenzamide] are “No (Agonist defined as a compound whose Emax in the ARVP16 DNA Binding Assay (Agonist mode) is >20x DMSO control)” and under 1000 nM.
For the compound `CNC(=O)c1ccc(N2C(=S)N(c3cnc(C#N)c(C)c3)C(=O)C23CCCC3)cc1F` [Compound 6, 4-(3-(6-Cyano-5-methylpyridin-3-yl)-4-oxo-2-thioxo-1,3-diazaspiro[4.4]nonan-1-yl)-2-fluoro-N-methylbenzamide], the “ARVP16 DNA Binding Assay” value in test [1] is “No (Agonist defined as a compound whose Emax in the ARVP16 DNA Binding Assay (Agonist mode) is >20x DMSO control)”. For the same compound, the IC50 in test [2] is under 1000 nM.
Take `Cc1ccc(-c2ccc(N3C(=S)N(c4cnc(C#N)c(C)c4)C(=O)C34CCC4)cc2)o1` [Compound 7, 3-Methyl-5-(5-(4-(5-methylfuran-2-yl)phenyl)-8-oxo-6-thioxo-5,7-diazaspiro[3.4]octan-7-yl)picolinonitrile]: the “ARVP16 DNA Binding Assay” value in test [1] is “No (Agonist defined as a compound whose Emax in the ARVP16 DNA Binding Assay (Agonist mode) is >20x DMSO control)”. For the same compound, the IC50 in test [2] is under 1000 nM.
Taken in the same sequence, the figures for `CCOC(=O)c1cc(N2C(=S)N(c3cnc(C#N)c(C(F)(F)F)c3)C(=O)C23CCC3)ccc1F` [Compound 8, Ethyl 5-(7-(6-cyano-5-(trifluoromethyl)pyridin-3-yl)-8-oxo-6-thioxo-5,7-diazaspiro[3.4]octan-5-yl)-2-fluorobenzoate] were “No (Agonist defined as a compound whose Emax in the ARVP16 DNA Binding Assay (Agonist mode) is >20x DMSO control)” and over 1000 nM.
Regarding `N#Cc1ccccc1N1C(=S)N(c2cnc(C#N)c(C(F)(F)F)c2)C(=O)C12CCC2` [Compound 10, 5-(5-(2-Cyanophenyl)-8-oxo-6-thioxo-5,7-diazaspiro[3.4]octan-7-yl)-3-(trifluoromethyl)picolinonitrile], in test [1], the “ARVP16 DNA Binding Assay” value was “No (Agonist defined as a compound whose Emax in the ARVP16 DNA Binding Assay (Agonist mode) is >20x DMSO control)”. Also, in test [2], the half-inhibitory concentration (IC50) is over 1000 nM.
On the same counts, the results for `N#Cc1cccc(N2C(=S)N(c3cnc(C#N)c(C(F)(F)F)c3)C(=O)C23CCC3)c1` [Compound 11, 5-(5-(3-Cyanophenyl)-8-oxo-6-thioxo-5,7-diazaspiro[3.4]octan-7-yl)-3-(trifluoromethyl)picolinonitrile] are “No (Agonist defined as a compound whose Emax in the ARVP16 DNA Binding Assay (Agonist mode) is >20x DMSO control)” and under 1000 nM.
On the same counts, the results for `N#Cc1ccc(N2C(=S)N(c3cnc(C#N)c(C(F)(F)F)c3)C(=O)C23CCC3)cc1` [Compound 12, 5-(5-(4-Cyanophenyl)-8-oxo-6-thioxo-5,7-diazaspiro[3.4]octan-7-yl)-3-(trifluoromethyl)picolinonitrile] are “No (Agonist defined as a compound whose Emax in the ARVP16 DNA Binding Assay (Agonist mode) is >20x DMSO control)” and under 1000 nM.
Take `N#Cc1ncc(N2C(=O)C3(CCC3)N(c3cccc(-c4ccccc4)c3)C2=S)cc1C(F)(F)F` [Compound 14, 5-(5-([1,1′-Biphenyl]-3-yl)-8-oxo-6-thioxo-5,7-diazaspiro[3.4]octan-7-yl)-3-(trifluoromethyl)picolinonitrile]: the “ARVP16 DNA Binding Assay” value in test [1] was “No (Agonist defined as a compound whose Emax in the ARVP16 DNA Binding Assay (Agonist mode) is >20x DMSO control)”. In test [2], the IC50 was over 1000 nM.
For `N#Cc1ncc(N2C(=O)C3(CCC3)N(c3ccccc3-c3ccccc3)C2=S)cc1C(F)(F)F` [Compound 15, 5-(5-([1,1′-Biphenyl]-2-yl)-8-oxo-6-thioxo-5,7-diazaspiro[3.4]octan-7-yl)-3-(trifluoromethyl)picolinonitrile], the “ARVP16 DNA Binding Assay” value in test [1] was “No (Agonist defined as a compound whose Emax in the ARVP16 DNA Binding Assay (Agonist mode) is >20x DMSO control)”. Further, in test [2], the IC50 was over 1000 nM.
For `N#Cc1ncc(N2C(=O)C3(CCC3)N(c3ccc(-c4ccccn4)cc3)C2=S)cc1C(F)(F)F` [Compound 16, 5-(8-Oxo-5-(4-(pyridin-2-yl)phenyl)-6-thioxo-5,7-diazaspiro[3.4]octan-7-yl)-3-(trifluoromethyl)picolinonitrile], the “ARVP16 DNA Binding Assay” value in test [1] is listed as “No (Agonist defined as a compound whose Emax in the ARVP16 DNA Binding Assay (Agonist mode) is >20x DMSO control)”. The IC50 in test [2] was under 1000 nM.
Consider `N#Cc1ncc(N2C(=O)C3(CCC3)N(c3ccc(-c4ccncc4)cc3)C2=S)cc1C(F)(F)F` [Compound 18, 5-(8-Oxo-5-(4-(pyridin-4-yl)phenyl)-6-thioxo-5,7-diazaspiro[3.4]octan-7-yl)-3-(trifluoromethyl)picolinonitrile], for which, in test [1], the “ARVP16 DNA Binding Assay” value is “Yes (Agonist defined as a compound whose Emax in the ARVP16 DNA Binding Assay (Agonist mode) is >20x DMSO control)”. For the same compound, in test [2], the IC50 is under 1000 nM.
Turning to `CN1CCC(Oc2ccc(N3C(=S)N(c4cnc(C#N)c(C(F)(F)F)c4)C(=O)C34CCC4)cc2)CC1` [Compound 129, 5-(5-(4-((1-Methylpiperidin-4-yl)oxy)phenyl)-8-oxo-6-thioxo-5,7-diazaspiro[3.4]octan-7-yl)-3-(trifluoromethyl)picolinonitrile], the “ARVP16 DNA Binding Assay” value in test [1] was “No (Agonist defined as a compound whose Emax in the ARVP16 DNA Binding Assay (Agonist mode) is >20x DMSO control)”.
Regarding `Cc1cc(N2C(=O)C3(CCC3)N(c3ccc(C(=O)Nc4ccc(F)cc4)c(F)c3)C2=S)cnc1C#N` [Compound 299, 4-(7-(6-Cyano-5-methylpyridin-3-yl)-8-oxo-6-thioxo-5,7-diazaspiro[3.4]octan-5-yl)-2-fluoro-N-(4-fluorophenyl)benzamide], the IC50 in test [2] is under 1000 nM.
Compound `Cc1cc(N2C(=O)C3(CCC3)N(c3ccc(C(=O)Nc4ncco4)c(F)c3)C2=S)cnc1C#N` [Compound 300, 4-(7-(6-cyano-5-methylpyridin-3-yl)-8-oxo-6-thioxo-5,7-diazaspiro[3.4]octan-5-yl)-2-fluoro-N-(oxazol-2-yl)benzamide] returned an IC50 in test [2] of under 1000 nM.
On the same count and under the same terms, then `Cc1cc(N2C(=O)C3(CCC3)N(c3ccc(C(=O)Nc4nccs4)c(F)c3)C2=S)cnc1C#N` [Compound 301, 4-(7-(6-Cyano-5-methylpyridin-3-yl)-8-oxo-6-thioxo-5,7-diazaspiro[3.4]octan-5-yl)-2-fluoro-N-(thiazol-2-yl)benzamide], with under 1000 nM; and `Cc1cc(N2C(=O)C3(CCC3)N(c3ccc(C(=O)Nc4ccnn4C)c(F)c3)C2=S)cnc1C#N` [Compound 302, 4-(7-(6-Cyano-5-methylpyridin-3-yl)-8-oxo-6-thioxo-5,7-diazaspiro[3.4]octan-5-yl)-2-fluoro-N-(1-methyl-1H-pyrazol-5-yl)benzamide], with under 1000 nM.
The same measure, in the same setting: then `Cc1ccc(NC(=O)c2ccc(N3C(=S)N(c4cnc(C#N)c(C)c4)C(=O)C34CCC4)cc2F)cn1` [Compound 304, 4-(7-(6-Cyano-5-methylpyridin-3-yl)-8-oxo-6-thioxo-5,7-diazaspiro[3.4]octan-5-yl)-2-fluoro-N-(6-methylpyridin-3-yl)benzamide], with under 1000 nM; and `CN1CCN(C(=O)COc2ccc(N3C(=S)N(c4cnc(C#N)c(C(F)(F)F)c4)C(=O)C34CCC4)cc2F)CC1` [Compound 309, 5-(5-(3-Fluoro-4-(2-(4-methylpiperazin-1-yl)-2-oxoethoxy)phenyl)-8-oxo-6-thioxo-5,7-diazaspiro[3.4]octan-7-yl)-3-(trifluoromethyl)picolinonitrile], with under 1000 nM.
Take `Cc1cc(N2C(=O)C3(CCC3)N(c3ccc(C(=O)NC4CCOCC4)c(F)c3)C2=S)cnc1C#N` [Compound 310, 4-(7-(6-Cyano-5-methylpyridin-3-yl)-8-oxo-6-thioxo-5,7-diazaspiro[3.4]octan-5-yl)-2-fluoro-N-(tetrahydro-2H-pyran-4-yl)benzamide]: the IC50 in test [2] is over 1000 nM.
